For data set [1] the following is noted: background art; cited from earlier work.
The test system of data set [2] is cerebral infarction (middle cerebral artery occlusion). Put plainly: Protection of Cerebral Infarction in Rats With Middle Cerebral Artery Occlusion. The data set is classed as in vivo, Male SD rats. The settings on record: 0.125 mg/kg, intravenously after middle cerebral artery occlusion. From the text:
Protection of Cerebral Infarction in Rats With Middle Cerebral Artery Occlusion
The cerebral infarction protective effect of the compound of the invention was confirmed in a rat middle cerebral artery occlusion model. This is an animal model of brain regional ischemia which is similar to human cerebral infarction and it is known that the model is useful as a therapeutic model as well (Cerebral Apoplexy Experiment Handbook, 91-97, 1990, published by ICP). Any drug showing cerebral infarction protective activity in this test system can be expected to be clinically effective in humans.
Male SD rats aged 7-8 weeks were anesthetized with ketamin hydrochloride 120-150 mg/kg, i.p. and the head was placed in lateral recumbent position on an operation table. […] Then, the frontal sections were photographed and using an image processor, the areas of infarction were measured. The percentage of the infarct area in the frontal section 6 mm caudal to frontal rostrum, that is at the striatal level, relative to the total area of the tissue section and the total infarct area of the 5 frontal sections prepared at 2 mm intervals from the frontal rostrum was calculated and the percentage of the total infarct area relative to the total area of all the sections was calculated. […]

The subject of the next data set is NMDA receptor. Put plainly: NMDA-Induced Convulsion Inhibitory Activity. The data set is classed as in vivo, Mice. The settings on record: 20 mg/kg, i.p. 30 minutes before NMDA 200 mg/kg i.p. On the procedure:
NMDA-Induced Convulsion Inhibitory Activity
Mice were intraperitoneally dosed with 200 mg/kg of N-methyl-D-aspartate (NMDA) and observed for the consequent convulsion and death over a period of 30 minutes after administration. As test drugs, the compound of Example 1, compound of Example 2, compound of Reference Example 10, and compound of Reference Example 12 were used and each was administered intraperitoneally 30 minutes before administration of NMDA.

A further data set is described as follows: Acute Toxicity Study. It counts as in vivo. As to the method: Male SD rats (Slc:SD, Japan SLC) were used. The rats were purchased at 7 weeks of age and the animals which went through a week-long quarantine and acclimation were used in groups of 6. The dose volume was 5 ml/kg for intraperitoneal administration and 10 ml/kg for intravenous administration. […] The drug solutions were prepared using physiological saline and filtered through a 0.22 μm bacterial filter.

The subject of data set [3] is pyramidal cells in the hippocampal CA-1 subfield. Put plainly: Delayed Neuronal Death (DND) Inhibitory Activity in Gerbils (transient ischemia, bilateral common carotid artery occlusion). It counts as in vivo. The settings on record: for DND inhibition (score of neuronal death in the hippocampal CA-1 subfield): given at reperfusion after 5-minute ischemia, score 0 (0-10% death) to 4 (75-100% death), control 4.00, n=5, **: p < 0.01 (Wilcoxon's U test). From the text:
Delayed Neuronal Death (DND) Inhibitory Activity in Gerbils
The delayed neuronal death protective effect of the compound of the invention was confirmed by an experiment using gerbils. This test is the most widely used for all relevant in vivo evaluation protocols and it is reported that any drug showing DND inhibitory activity in this test system can be expected to be clinically effective in humans [GENDAI-IRYO, 24, 129-133 (1992), Neurology 1987, 37, 1281-1287).
Male gerbils weighing 60-80 g were anesthetized with pentobarbital sodium 35 mg/kg i.p. and placed in supine position. After the skin in the cervical region was incised, the bilateral common carotid arteries were exposed and sutures were placed around each artery. Both ends of each suture was introduced into a polyethylene tube and in suturing the incised wound, the tube was secured to the cervical skin with the suture emerged from the other end of the tube. On the following day, with the animal under no anesthesia, both ends of the suture were gently pulled out and the carotid artery snared by the suture was urged in a bent position into the tube to thereby occlude the carotid artery. After a transient ischemic loading of 5 minutes' duration by occlusion of the bilateral common carotid arteries, the arteries were reperfused. After 7 days, the brain was excised and fixed. A section centered around the hippocampus was prepared and Nissle-stained with 0.05% cresyl violet and the pyramidal cells in the hippocampal CA-1 subfield were microscopically examined for degeneration and death. The degree of neuronal death was scored according to the following criteria.
Criteria for evaluation of neuronal death in the hippocampal CA-1 subfield

The test system of the next data set is delayed neuronal death. The settings on record: background art; cited from earlier work.

Counter-ions that a name gives are not always drawn.

With `Cc1cc(OCCN2CCN(c3ccccc3)CC2)nc(-c2ccccc2)n1` [4-methyl-2-phenyl-6-[2-(4-phenylpiperazin-1-yl)ethyloxy]pyrimidine], in data set [1], the “α-sympatholytic activity (sedation, hypotension, and vasodilation)” value is “has α-sympatholytic activity (sedation, hypotension, and vasodilation)”.
In the case of `Cc1nc(OCCCCCN2CCCCC2)cc(-c2ccc(F)cc2)n1.Cl` [Example 1, 4-(4-Fluorophenyl)-2-methyl-6-(5-piperidinopentyloxy)pyrimidine hydrochloride], the “inhibition of neuronal death in the rat model of persistent brain ischemia” value in data set [2] is listed as “markedly inhibited neuronal death”. The “inhibition of NMDA-induced convulsion” value in the data set with NMDA receptor is “did not inhibit”. Further, in “Acute Toxicity Study” (intraperitoneal, observed daily for 7 days), the “general condition of animals” value is “no remarkable change”. The LD50 (commonly the dose expected to kill half of the subjects tested) at 168 h was determined as 65.8 mg/kg in “Acute Toxicity Study” (rat, in vivo, ip, intraperitoneal) and 22.8 mg/kg in the data set “Acute Toxicity Study” (rat, in vivo, intravenous). Also, the “DND inhibition (score of neuronal death in the hippocampal CA-1 subfield)” value (from here on “DND inhibition”) in data set [3] (50 mg/kg i.p.) was 0.60. Moreover, the “protection activity against the delayed neuronal death, post-ischemia dosing” value in data set [3] (single dose after a lapse of 1-2 hours after ischemia) is given as “exhibited a protection activity against the delayed neuronal death”.
On to `Cc1nc(OCCCCN2CCCCC2)cc(-c2ccc(F)cc2)n1.Cl` [Example 2, 4-(4-Fluorophenyl)-2-methyl-6-(4-piperidinobutoxy)pyrimidine hydrochloride], for which, in the data set with NMDA receptor, the “inhibition of NMDA-induced convulsion” value was “did not inhibit”. In addition, the “general condition of animals” value in “Acute Toxicity Study” (rat, in vivo, ip) is “no remarkable change”. For the same compound, in data set [3] (50 mg/kg i.p.), the “DND inhibition” value stood at 0.80.
`Cc1nc(OCCCCCCN2CCCCC2)cc(-c2ccc(F)cc2)n1` [Example 3, 4-(4-Fluorophenyl)-2-methyl-6-(6-piperidinohexyloxy)primidine hydrochloride]: the “general condition of animals” value in “Acute Toxicity Study” (rat, in vivo, ip) is on record as “no remarkable change”. Further, the “DND inhibition” value in data set [3] (30 mg/kg, i.p.) is 0.60.
With `Cc1cc(OCCCCN2CCCCC2)nc(-c2ccc(F)cc2)n1.Cl` [Example 4, 2-(4-Fluorophenyl)-4-methyl-6-(4-piperidinobutoxy)pyrimidine hydrochloride], the “general condition of animals” value in the data set “Acute Toxicity Study” (rat, in vivo, ip) is given as “no remarkable change”. In data set [3] (50 mg/kg i.p.), the “DND inhibition” value was 0.60.
In the same order, the values of `Cc1cc(-c2ccc(F)cc2)cc(OCCCN2CCCCC2)n1.Cl` [Example 16, 4-(4-Fluorophenyl)-2-methyl-6-(3-piperidinopropoxy)pyridine hydrochloride] are “no remarkable change” and 0.60.
Turning to `Cc1cc(-c2ccc(F)cc2)cc(OCCCCCN2CCCCC2)n1.Cl` [Example 18, 4-(4-Fluorophenyl)-2-methyl-6-(5-piperidinopentyloxy)pyridine hydrochloride], in “Acute Toxicity Study” (rat, in vivo, ip), the “general condition of animals” value is “no remarkable change”. The “DND inhibition” value in data set [3] (50 mg/kg i.p.) came out at 0.80.
Turning to `Cc1nc(OC(C)CCCN2CCCCC2)cc(-c2ccc(F)cc2)n1.Cl` (centres unmarked) [Example 21, 4-(4-Fluorophenyl)-2-methyl-6-(1-methyl-4-piperidinobutoxy)pyrimidine hydrochloride], in “Acute Toxicity Study” (rat, in vivo, ip), the “general condition of animals” value is reported as “no remarkable change”. Besides, the “DND inhibition” value in data set [3] (50 mg/kg i.p.) came to 0.60.
In the case of `Cc1nc(OCCCN2CCCCC2)cc(-c2ccc(F)cc2)n1.Cl` [Reference Example 10, 4-(4-Fluorophenyl)-2-methyl-6-(3-piperidinopropoxy)pyrimidine hydrochloride], the “inhibition of NMDA-induced convulsion” value with NMDA receptor is reported as “did not inhibit”. In addition, in “Acute Toxicity Study” (rat, in vivo, ip), the “general condition of animals” value is listed as “no remarkable change”. Moreover, the “DND inhibition” value in data set [3] (50 mg/kg i.p.) came to 0.60.
As to `Cc1cc(OCCCN2CCCCC2)nc(-c2ccc(F)cc2)n1.Cl` [Reference Example 12, 2-(4-Fluorophenyl)-4-methyl-6-(3-piperidinopropoxy)pyrimidine hydrochloride], the “inhibition of NMDA-induced convulsion” value in the data set on NMDA receptor is given as “did not inhibit”.
As for `CCCn1cnc2c1c(=O)n(CCCCC(C)=O)c(=O)n2C` [propentofylline], the “effect against delayed neuronal death” value with delayed neuronal death is reported as “effective against delayed neuronal death”.

(Values after patent US5945426A, “Derivatives of pyrimidine for treating acute cerebrovascular disorders” (Nippon Shinyaku Co., Ltd., priority 1994, dated 1999).)
